Earlier results, collected in article PMC2931793 (Journal of neuroscience methods, 2008).

System: IDE
Conditions: ref Song et al., 2001

Substance | Vmax of IDE-mediated cleavage
β-endorphin | 2.6 µmol/min/mg
Abz-GGFLRKGVQ-EDDnp | ~ 0.2 μmol min^−1 mg^−1
